Laboratory results taken from PMC11053944, “FRET Assays for the Identification of C. albicans HSP90-Sba1 and Human HSP90α-p23 Binding Inhibitors” (Pharmaceuticals, 2024).
Entries after “also recorded” stand apart in the source; their conditions may differ. Like-named read-outs stand apart in the source and are kept apart here.

Assays:
[1] = target: T1, C. albicans HSP90-mNeonGreen–Sba1-mScarlet-I binding (Candida albicans, UniProt P46598, E36A)
T1 construct: made in house; host or cells: E. coli BL21(DE3)
Procedure: (§1) In this investigation, 1 µM HSP90-mNeonGreen was incubated with 2 µM Sba1-mScarlet-I in reaction buffer containing 5 mM ATP either alone (UC) or with the addition of 20 µM Sba1. As a negative control, samples containing 20 µM bovine serum albumin (BSA) were used.
(§2) FRET experiments were carried out in 384-well microtiter plates (Art. No. 3766 Corning, NY, USA, or Art. No. 781906, Greiner Bio-One GmbH, Frickenhausen, Germany) containing a final volume of 20 µL and measured with a microplate reader Infinite M200Pro (Tecan, Männedorf, Switzerland). The fluorescence was measured in three channels: excitation (ex.): 488 nm/emission (em.): 525 nm (mNeonGreen fluorescence), ex.: 561 nm/em.: 610 nm (mScarlet-I fluorescence) and the FRET channel ex.: 488 nm/em.: 610 nm. The excitation and emission bandwidths were set to 9 and 20 nm, respectively. Experiments for the determination of the equilibrium dissociation constants were performed with a filter-based microplate reader Infinite F200Pro (Tecan, Männedorf, Switzerland). The fluorescence was measured in three channels using the following filters: ex.: 485 ± 20 nm/em.: 535 ± 20 nm (mNeonGreen channel), ex.: 535 ± 20 nm/em.: 612 ± 10 nm (mScarlet-I channel) and the FRET channel ex.: 485 ± 20 nm/em.: 612 ± 10 nm. FRET emission (EmFRET) was calculated according to Song et al. 2011 [81]:(1) EmFRET=FLDA−x×FLDD−(y×FLAA) where FLDA is the fluorescence signal of the FRET channel and FLDD and FLAA are fluorescence signals from the mNeonGreen and mScarlet-I channels, respectively. The correction factors x and y were calculated as follows:(2) x=FLDA/FLDD for samples containing only the donor fluorophore or fluorescent fusion proteins with mNeonGreen and (3) y=FLDA/FLAA for samples containing only the acceptor fluorophore or fluorescent fusion proteins with mScarlet-I in the same concentration as samples containing both the donor and acceptor.
All experiments were carried out in reaction buffer (40 mM HEPES/KOH pH 7.5, 20 mM KCl, 5 mM MgCl2, 20 mM Na2MoO4, Triton-X 100 0.1%). HEPES and KCl were purchased from AppliChem, Darmstadt, Germany. […]

[2] = target: T2, human HSP90α-mNeonGreen–p23-mScarlet-I binding (Homo sapiens, UniProt P07900, E47A); test: FRET characterization of model inhibitors and ATP on human HSP90α-p23 binding
T2 construct: made in house; host or cells: E. coli Rosetta2(DE3) pLysS
Procedure: as §1, §2
All experiments were carried out in reaction buffer (40 mM HEPES/KOH pH 7.5, 20 mM KCl, 5 mM MgCl2, 20 mM Na2MoO4, Triton-X 100 0.1%). HEPES and KCl were purchased from AppliChem, Darmstadt, Germany. KOH and MgCl2 were obtained from VWR Chemicals, Darmstadt, Germany. Na2MoO4 was from Merck, Darmstadt, Germany. Triton-X 100 was purchased from Serva, Heidelberg, Germany.
For C. albicans Sba1 competition experiments for HSP90-mNeonGreen–Sba1-mScarlet-I binding, 1 µM HSP90-mNeonGreen and 1 µM Sba1-mScarlet-I were incubated with varying concentrations of Sba1 in a range of 0–25,000 nM (lowest non-zero concentration 12 nM) in reaction buffer containing 5 mM ATP. The experiment was performed twice in nonaplicates. For human p23 competition experiments for HSP90α-mNeonGreen–p23-mScarlet-I binding, 1 µM HSP90α-mNeonGreen and 1 µM p23-mScarlet-I were incubated with varying concentrations of p23 in a range of 0–50 000 nM (lowest non-zero concentration 23 nM) in reaction buffer containing 5 mM ATP. The experiment was performed twice in hexaplicates. […] The experiment was performed thrice in triplicates. […] The IC50,rel values were calculated using the equation log (inhibitor) vs. response-variable slope (four parameters) in GraphPad Prism 5. Ki values for inhibition of HSP90-mNeonGreen–Sba1-mScarlet-I/p23-mScarlet-I binding by non-labeled Sba1/p23 were calculated with One Site—Fit Ki in GraphPad Prism 5. […] The EC50,rel values were calculated using the log (agonist) vs. response-variable slope (four parameters) equation in GraphPad Prism 5.

[3] = target: T3, C. albicans HSP90–Sba1 binding (Candida albicans, UniProt P46598); test: FRET inhibitor screening assay, C. albicans HSP90-Sba1 binding; conditions: 10 or 100 µM (Sba1 20 µM), triplicates, 3 mM ATP, 1% DMSO, 15 min 30 °C
T3 construct: made in house; host or cells: E. coli BL21(DE3)
T3 sequence (P46598 whole entry): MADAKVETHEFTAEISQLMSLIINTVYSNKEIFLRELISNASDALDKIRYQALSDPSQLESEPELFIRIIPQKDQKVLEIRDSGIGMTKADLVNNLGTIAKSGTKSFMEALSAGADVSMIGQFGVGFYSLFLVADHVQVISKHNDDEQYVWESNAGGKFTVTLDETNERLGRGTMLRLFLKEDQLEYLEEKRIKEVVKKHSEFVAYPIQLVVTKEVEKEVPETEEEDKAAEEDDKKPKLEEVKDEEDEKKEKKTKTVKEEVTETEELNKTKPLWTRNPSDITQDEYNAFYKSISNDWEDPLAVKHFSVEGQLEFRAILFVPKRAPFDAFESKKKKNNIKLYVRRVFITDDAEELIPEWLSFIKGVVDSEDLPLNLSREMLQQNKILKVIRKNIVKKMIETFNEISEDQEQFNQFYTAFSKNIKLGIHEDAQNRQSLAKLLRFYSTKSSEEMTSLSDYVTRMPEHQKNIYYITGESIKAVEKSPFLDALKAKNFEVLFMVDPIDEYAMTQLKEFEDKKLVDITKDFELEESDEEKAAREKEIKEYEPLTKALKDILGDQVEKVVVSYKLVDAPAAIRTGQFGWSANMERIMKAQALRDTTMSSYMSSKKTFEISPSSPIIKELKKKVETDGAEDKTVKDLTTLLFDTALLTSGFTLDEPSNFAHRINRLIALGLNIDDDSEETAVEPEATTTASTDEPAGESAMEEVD
Description: We used the Z′ factor (Z′) to optimize the FRET assays for screening purposes. Z′ represents a simple statistical parameter for the quality assessment and optimization of HTS assays and screening assays in general. It is a measure that determines the degree of signal separation between binding and non-binding data sets. Calculation of the Z′ factor is based on the standard deviation of the individual data sets as well as their general signal separation. Values ≥ 0.5 can be classified as excellent for screening purposes. […] When the fluorescent fusion proteins of HSP90 and co-chaperones bind to each other, FRET occurs between donor and acceptor fluorophores, and the sensitized emission (EmFRET) signal increases. Consequently, the fluorescence intensity of the donor decreases (FLDD). […] To obtain an informative Z′ value, we calculated it based on at least three independent experiments amounting to 144 samples for both binding and non-binding control data sets (Figure 4B,E). […] We defined the ‘hit threshold’ as a decrease in readout signal of more than 3 standard deviations (SDs) from the mean signal of the binding control. This constitutes a common threshold for hit identification in HTS campaigns.
as §2
For screening for the identification of ATP-competitive C. albicans HSP90 and HSP90-Sba1 binding inhibitors, 10 µL of HSP90-mNeonGreen ([…]) in HEPES buffer (40 mM HEPES/KOH pH 7.5, 20 mM KCl) was mixed with 10 µL of 200 µM compound solution in 2x reaction buffer (40 mM HEPES/KOH pH 7.5, 20 mM KCl, 10 mM MgCl2, 40 mM Na2MoO4, Triton-X 100 0.2%), 6 mM ATP, 2% DMSO, resulting […] Samples for binding control (3 mM ATP, final concentration) and non-binding control (no ATP) were prepared in the same manner without compounds. The samples were incubated for 15 min at 30 °C prior to measurement.

human HSP90α–p23 binding = target: T4, human HSP90α–p23 binding (Homo sapiens, UniProt P07900); test: FRET inhibitor screening assay, human HSP90α-p23 binding; conditions: 10 or 100 µM, triplicates, 3 mM ATP, 1% DMSO, 15 min 37 °C
T4 construct: made in house; host or cells: E. coli Rosetta2(DE3) pLysS
Description: We used the Z′ factor (Z′) to optimize the FRET assays for screening purposes. Z′ represents a simple statistical parameter for the quality assessment and optimization of HTS assays and screening assays in general. It is a measure that determines the degree of signal separation between binding and non-binding data sets. Calculation of the Z′ factor is based on the standard deviation of the individual data sets as well as their general signal separation. Values ≥ 0.5 can be classified as excellent for screening purposes. […] When the fluorescent fusion proteins of HSP90 and co-chaperones bind to each other, FRET occurs between donor and acceptor fluorophores, and the sensitized emission (EmFRET) signal increases. Consequently, the fluorescence intensity of the donor decreases (FLDD). […] We defined the ‘hit threshold’ as a decrease in readout signal of more than 3 standard deviations (SDs) from the mean signal of the binding control. This constitutes a common threshold for hit identification in HTS campaigns.
The excitation and emission bandwidths were set to 9 and 20 nm, respectively. Experiments for the determination of the equilibrium dissociation constants were performed with a filter-based microplate reader Infinite F200Pro (Tecan, Männedorf, Switzerland). […] The correction factors x and y were calculated as follows:(2) x=FLDA/FLDD for samples containing only the donor fluorophore or fluorescent fusion proteins with mNeonGreen and (3) y=FLDA/FLAA for samples containing only the acceptor fluorophore or fluorescent fusion proteins with mScarlet-I in the same concentration as samples containing both the donor and acceptor.
For screening for the identification of ATP-competitive C. albicans HSP90 and HSP90-Sba1 binding inhibitors, 10 µL of HSP90-mNeonGreen (2 µM) and Sba1-mScarlet-I (4 µM) in HEPES buffer (40 mM HEPES/KOH pH 7.5, 20 mM KCl) was mixed with 10 µL of 200 µM compound solution in 2x reaction buffer (40 mM HEPES/KOH pH 7.5, 20 mM KCl, 10 mM MgCl2, 40 mM Na2MoO4, Triton-X 100 0.2%), 6 mM ATP, 2% DMSO, resulting ultimately in constant HSP90-mNeonGreen concentrations of 1 µM and Sba1-mScarlet-I 2 µM in reaction buffer. Samples for binding control (3 mM ATP, final concentration) and non-binding control (no ATP) were prepared in the same manner without compounds. The samples were incubated for 15 min at 30 °C prior to measurement. The assay for the human HSP90α–p23 binding inhibitor identification was performed analogously, with the exception that samples were incubated for 15 min at 37 °C prior to measurement. Since binding samples show both a high EmFRET as well as a reduction in donor emission (FLDD), we calculated the quotient (EmFRET/FLDD) to derive an improved signal separation and robustness. The nucleoside-mimetics library was obtained from Enamine (catalog No. NML-320-X-20, Enamine Ltd., Kyiv, Ukraine). Z′ and Z factors were calculated based on Zhang et al..

HSP90 - Sba1/p23 binding = conditions: according to literature, cited from earlier work

SMILES | hit identification (EmFRET/FLDD decrease of more than 3 SDs from binding control mean) [3] | hit identification (EmFRET/FLDD decrease of more than 3 SDs from binding control mean) (human HSP90α–p23 binding) | Influence on p23/Sba1 binding (HSP90 - Sba1/p23 binding) | also measured
Nc1ncnc2c1ncn2[C@@H]1O[C@H](COP(=O)(O)OP(=O)(O)OP(=O)(O)O)[C@@H](O)[C@H]1O [ATP] | – | – | – | concentration at which maximum binding was reached ([1]; 1 µM HSP90E36A-mNeonGreen, 2 µM Sba1-mScarlet-I): ~ 3 mM; EC50 ([1]; 1 µM donor, 2 µM acceptor, ATP 0–12,500 µM, read-out: EC50,rel, influence on HSP90E36A-mNeonGreen–Sba1-mScarlet-I binding): 220 ± 40 µM; concentration at which maximum binding was reached ([2]; 1 µM HSP90αE47A-mNeonGreen, 2 µM p23-mScarlet-I): ~ 3 mM; EC50 ([2]; 1 µM donor, 2 µM acceptor, read-out: EC50,rel, influence on HSP90αE47A-mNeonGreen–p23-mScarlet-I binding): 210 ± 30 µM
O=C(O[C@@H]1Cc2c(O)cc(O)cc2O[C@@H]1c1cc(O)c(O)c(O)c1)c1cc(O)c(O)c(O)c1 [EGCG, (−)-Epigallocatechin-3-gallate] | pan-assay interfering compound (PAIN) | strong decrease in FRET emission; also recorded: pan-assay interfering compound (PAIN) | Yes | –
CCNC(=O)c1noc(-c2cc(C(C)C)c(O)cc2O)c1-c1ccc(CN2CCOCC2)cc1 [NVP-AUY922, luminespib] | reliably identified as hits | – | Yes | hit identification (EmFRET/FLDD decrease of more than 3 SDs from binding control mean) ([3]; listed as luminespib): reliably identified as disrupting HSP90-Sba1 binding
CC1=C(O)C(=O)C=C2C1=CC=C1[C@@]2(C)CC[C@@]2(C)[C@@H]3C[C@](C)(C(=O)O)CC[C@]3(C)CC[C@]12C [celastrol] | show no influence | show no influence | No and not influence | –
COc1cc2c(cc1OC)[C@@H]1C(=O)c3ccc4c(c3O[C@@H]1CO2)C=CC(C)(C)O4 [deguelin] | do not show an effect; also recorded: show no influence | show no influence | – | –
C[C@@H]1C[C@H]2O[C@@H]2/C=C\C=C\C(=O)Cc2c(Cl)c(O)cc(O)c2C(=O)O1 [radicicol] | reliably identified as disrupting HSP90-Sba1 binding; also recorded: reliably identified as hits | – | Yes | –
COc1cc(C2Oc3cc([C@H]4Oc5cc(O)cc(O)c5C(=O)[C@@H]4O)ccc3OC2CO)ccc1O (some centres unmarked) [silibinin] | do not show an effect; also recorded: show no influence | show no influence | – | –
CC1=C(CO)C(=O)O[C@@H]([C@@H](C)[C@H]2CC[C@H]3[C@@H]4C[C@H]5O[C@]56[C@@H](O)C=CC(=O)[C@]6(C)[C@H]4CC[C@]23C)C1 [withaferin A] | do not show an effect; also recorded: show no influence | show no influence | not influence | Influence on p23/Sba1 binding (HSP90 - Sba1/p23 binding; listed as Withaferin A): No
